The results in this text go back to patent US20140120083A1, “TREATMENT OF CANCERS USING PI3 KINASE ISOFORM MODULATORS” (INFINITY PHARMACEUTICALS, INC., priority 2012, published 2014).

What all share (assay type): biochemical
In one assay the target is PI3K β (Homo sapiens, UniProt P42338). The assay can be described thus: In vitro IC50, PI3K β. The source says:
(§1) An exemplary system is PI 3-Kinase (human) HTRF™ Assay from Upstate.

In another assay the target is T1, PI3K γ (Homo sapiens, UniProt P48736).
T1 construct: purchased Sigma
The assay can be described thus: In vitro IC50, PI3K γ.
Description: as §1

A further assay deals with T2, PI3K α (Homo sapiens, UniProt P42336).
T2 construct: purchased Upstate
In words: In vitro IC50, PI3K α.
Description: as §1

A further assay has as its target PI3K δ (Homo sapiens, UniProt O00329). The assay can be described thus: In vitro IC50, PI3K δ. The arrangement: purchased Upstate.
Description: as §1

T2 sequence (P42336 whole entry): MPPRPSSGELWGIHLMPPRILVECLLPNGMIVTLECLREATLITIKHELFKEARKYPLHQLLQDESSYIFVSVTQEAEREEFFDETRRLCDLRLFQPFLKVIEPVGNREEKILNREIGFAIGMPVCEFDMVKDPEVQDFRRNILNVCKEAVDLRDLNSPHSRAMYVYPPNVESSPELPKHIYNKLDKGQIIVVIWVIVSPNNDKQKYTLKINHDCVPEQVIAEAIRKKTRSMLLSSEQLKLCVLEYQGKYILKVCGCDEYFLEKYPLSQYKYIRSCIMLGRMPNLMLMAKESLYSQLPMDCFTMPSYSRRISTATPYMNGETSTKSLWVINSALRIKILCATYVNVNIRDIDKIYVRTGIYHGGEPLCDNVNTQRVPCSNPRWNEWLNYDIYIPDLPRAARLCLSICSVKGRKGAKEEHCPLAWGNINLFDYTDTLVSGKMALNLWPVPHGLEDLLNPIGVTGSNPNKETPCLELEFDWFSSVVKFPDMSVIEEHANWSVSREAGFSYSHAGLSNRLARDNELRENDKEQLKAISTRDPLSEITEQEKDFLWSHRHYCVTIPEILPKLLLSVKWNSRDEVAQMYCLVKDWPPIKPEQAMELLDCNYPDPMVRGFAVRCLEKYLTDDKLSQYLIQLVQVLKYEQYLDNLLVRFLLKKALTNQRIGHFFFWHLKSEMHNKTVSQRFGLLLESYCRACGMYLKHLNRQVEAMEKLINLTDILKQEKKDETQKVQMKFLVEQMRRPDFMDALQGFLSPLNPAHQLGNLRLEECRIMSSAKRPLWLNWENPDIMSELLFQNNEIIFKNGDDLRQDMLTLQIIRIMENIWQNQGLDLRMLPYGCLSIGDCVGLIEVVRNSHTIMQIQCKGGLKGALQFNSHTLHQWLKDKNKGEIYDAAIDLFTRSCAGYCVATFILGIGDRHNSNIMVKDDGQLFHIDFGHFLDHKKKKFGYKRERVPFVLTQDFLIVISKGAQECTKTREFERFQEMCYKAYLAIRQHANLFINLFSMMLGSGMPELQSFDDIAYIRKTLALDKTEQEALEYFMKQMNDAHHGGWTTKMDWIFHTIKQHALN
T2 sequence (P27986 whole entry partner): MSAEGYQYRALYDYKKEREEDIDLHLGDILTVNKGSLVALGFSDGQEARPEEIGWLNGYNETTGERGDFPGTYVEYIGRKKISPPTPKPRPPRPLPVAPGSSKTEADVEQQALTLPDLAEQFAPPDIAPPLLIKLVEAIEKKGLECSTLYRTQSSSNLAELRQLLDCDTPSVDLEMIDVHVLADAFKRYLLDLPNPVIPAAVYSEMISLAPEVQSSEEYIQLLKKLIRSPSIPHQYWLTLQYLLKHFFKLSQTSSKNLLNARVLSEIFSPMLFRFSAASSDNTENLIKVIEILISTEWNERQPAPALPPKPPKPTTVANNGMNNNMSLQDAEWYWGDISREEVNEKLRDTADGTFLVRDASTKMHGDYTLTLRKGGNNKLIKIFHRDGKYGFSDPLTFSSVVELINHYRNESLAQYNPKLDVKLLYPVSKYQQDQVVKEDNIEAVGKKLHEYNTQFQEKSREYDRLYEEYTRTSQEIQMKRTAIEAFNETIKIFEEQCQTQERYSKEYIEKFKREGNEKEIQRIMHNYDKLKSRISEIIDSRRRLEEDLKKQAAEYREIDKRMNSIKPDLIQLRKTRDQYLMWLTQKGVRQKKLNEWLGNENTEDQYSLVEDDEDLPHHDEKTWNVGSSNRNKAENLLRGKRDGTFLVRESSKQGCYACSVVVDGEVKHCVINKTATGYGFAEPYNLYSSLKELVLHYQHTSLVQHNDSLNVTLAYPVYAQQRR
T1 sequence (P48736 whole entry): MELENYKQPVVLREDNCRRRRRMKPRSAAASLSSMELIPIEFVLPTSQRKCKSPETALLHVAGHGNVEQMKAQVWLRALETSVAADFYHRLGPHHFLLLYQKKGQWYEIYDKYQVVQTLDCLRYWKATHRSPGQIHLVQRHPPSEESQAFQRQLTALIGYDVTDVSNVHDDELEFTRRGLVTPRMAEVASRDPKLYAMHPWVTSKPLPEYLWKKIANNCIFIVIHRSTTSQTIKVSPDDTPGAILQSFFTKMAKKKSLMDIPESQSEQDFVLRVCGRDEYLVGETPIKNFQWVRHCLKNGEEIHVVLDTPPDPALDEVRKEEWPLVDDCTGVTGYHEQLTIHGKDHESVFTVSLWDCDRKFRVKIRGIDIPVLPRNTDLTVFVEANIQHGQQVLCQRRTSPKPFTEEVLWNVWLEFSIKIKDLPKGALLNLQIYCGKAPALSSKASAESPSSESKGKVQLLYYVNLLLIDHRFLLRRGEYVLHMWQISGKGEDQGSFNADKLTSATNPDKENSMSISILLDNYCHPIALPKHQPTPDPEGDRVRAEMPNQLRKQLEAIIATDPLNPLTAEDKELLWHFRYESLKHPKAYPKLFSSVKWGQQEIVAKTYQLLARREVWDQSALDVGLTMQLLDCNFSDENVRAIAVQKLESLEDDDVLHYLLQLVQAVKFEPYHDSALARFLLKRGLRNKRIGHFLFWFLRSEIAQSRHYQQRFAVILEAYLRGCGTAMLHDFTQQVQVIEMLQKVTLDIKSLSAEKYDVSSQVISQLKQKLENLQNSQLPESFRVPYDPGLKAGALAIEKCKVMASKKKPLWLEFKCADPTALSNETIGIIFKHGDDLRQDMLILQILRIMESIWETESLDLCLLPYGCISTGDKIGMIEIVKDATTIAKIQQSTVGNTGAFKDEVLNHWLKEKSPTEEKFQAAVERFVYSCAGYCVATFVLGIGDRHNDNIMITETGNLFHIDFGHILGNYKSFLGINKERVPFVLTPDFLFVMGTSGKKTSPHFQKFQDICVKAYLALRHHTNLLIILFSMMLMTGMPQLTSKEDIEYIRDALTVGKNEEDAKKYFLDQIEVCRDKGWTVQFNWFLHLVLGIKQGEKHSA
Chain of PI3K β (P42338 whole entry): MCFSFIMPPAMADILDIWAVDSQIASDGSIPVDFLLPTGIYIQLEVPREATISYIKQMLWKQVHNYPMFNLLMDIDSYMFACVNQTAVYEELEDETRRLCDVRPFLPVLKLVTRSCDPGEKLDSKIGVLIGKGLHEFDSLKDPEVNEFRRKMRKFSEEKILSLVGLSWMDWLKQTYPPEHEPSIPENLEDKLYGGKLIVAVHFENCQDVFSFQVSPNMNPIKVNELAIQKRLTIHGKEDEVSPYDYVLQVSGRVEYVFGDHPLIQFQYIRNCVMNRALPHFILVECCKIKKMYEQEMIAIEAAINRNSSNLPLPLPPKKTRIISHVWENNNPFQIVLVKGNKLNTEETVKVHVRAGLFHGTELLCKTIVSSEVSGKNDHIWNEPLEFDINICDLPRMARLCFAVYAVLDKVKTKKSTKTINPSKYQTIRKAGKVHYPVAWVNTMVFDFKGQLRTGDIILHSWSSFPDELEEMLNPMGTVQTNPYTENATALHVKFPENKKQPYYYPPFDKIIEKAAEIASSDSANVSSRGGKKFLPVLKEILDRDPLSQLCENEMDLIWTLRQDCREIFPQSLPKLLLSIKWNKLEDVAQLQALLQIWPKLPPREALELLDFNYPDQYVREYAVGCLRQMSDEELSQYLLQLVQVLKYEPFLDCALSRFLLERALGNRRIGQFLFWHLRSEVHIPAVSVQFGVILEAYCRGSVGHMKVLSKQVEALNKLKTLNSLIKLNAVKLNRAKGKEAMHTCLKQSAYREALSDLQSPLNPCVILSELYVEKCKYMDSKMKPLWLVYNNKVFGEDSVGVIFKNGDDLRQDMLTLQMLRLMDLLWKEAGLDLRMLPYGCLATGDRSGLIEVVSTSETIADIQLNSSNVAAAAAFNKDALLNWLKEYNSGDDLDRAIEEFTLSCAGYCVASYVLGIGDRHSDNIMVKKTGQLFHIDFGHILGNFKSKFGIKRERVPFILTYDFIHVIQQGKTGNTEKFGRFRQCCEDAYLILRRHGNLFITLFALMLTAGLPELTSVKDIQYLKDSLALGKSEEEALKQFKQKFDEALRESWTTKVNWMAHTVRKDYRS
Chain of PI3K δ (O00329 whole entry): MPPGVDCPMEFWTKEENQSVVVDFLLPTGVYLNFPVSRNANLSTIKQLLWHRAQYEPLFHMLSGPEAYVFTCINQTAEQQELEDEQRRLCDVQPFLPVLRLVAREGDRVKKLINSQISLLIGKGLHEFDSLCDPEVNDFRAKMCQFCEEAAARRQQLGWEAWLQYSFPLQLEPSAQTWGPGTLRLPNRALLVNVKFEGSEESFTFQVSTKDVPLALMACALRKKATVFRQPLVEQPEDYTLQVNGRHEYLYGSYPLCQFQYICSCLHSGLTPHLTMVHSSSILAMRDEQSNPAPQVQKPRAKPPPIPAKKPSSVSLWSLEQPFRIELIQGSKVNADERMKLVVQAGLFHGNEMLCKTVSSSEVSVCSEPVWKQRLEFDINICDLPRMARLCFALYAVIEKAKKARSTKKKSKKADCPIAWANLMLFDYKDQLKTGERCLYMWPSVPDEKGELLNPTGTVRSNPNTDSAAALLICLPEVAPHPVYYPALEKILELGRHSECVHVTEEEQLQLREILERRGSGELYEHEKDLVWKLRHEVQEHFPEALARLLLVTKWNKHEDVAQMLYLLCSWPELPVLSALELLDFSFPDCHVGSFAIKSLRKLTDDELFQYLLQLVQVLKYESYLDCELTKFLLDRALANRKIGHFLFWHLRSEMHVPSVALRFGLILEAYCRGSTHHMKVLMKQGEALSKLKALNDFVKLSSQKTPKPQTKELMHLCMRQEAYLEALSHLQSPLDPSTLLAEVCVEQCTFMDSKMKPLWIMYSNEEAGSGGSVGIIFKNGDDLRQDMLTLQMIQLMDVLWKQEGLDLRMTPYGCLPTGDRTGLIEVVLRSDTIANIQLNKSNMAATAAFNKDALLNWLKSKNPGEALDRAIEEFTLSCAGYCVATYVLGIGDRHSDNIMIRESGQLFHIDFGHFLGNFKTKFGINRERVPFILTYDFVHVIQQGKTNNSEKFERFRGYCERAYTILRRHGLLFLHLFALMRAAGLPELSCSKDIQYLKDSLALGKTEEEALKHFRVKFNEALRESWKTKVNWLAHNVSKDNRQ
Chain of PI3K δ (P27986 whole entry partner): as the sequence (P27986 whole entry partner) above

As for `Cc1cccc2cc(Cn3nc(C#C[C@@H](C)O)c4c(N)ncnc43)n(C3CC3)c(=O)c12` [Compound 100], the IC50 on PI3K β is less than 1 µM; at PI3K γ, less than 1 µM; at PI3K α it was greater than 10 µM; against PI3K δ it was less than 0.1 µM.
Turning to `Cc1cccc2cc(Cn3nc(-c4cccc(O)c4)c4c(N)ncnc43)n(-c3ccccc3C(C)C)c(=O)c12` [Compound 82], the IC50 is less than 1 µM against PI3K β, less than 0.1 µM on PI3K γ, greater than 10 µM on PI3K α and less than 0.1 µM against PI3K δ.
For `Cc1ccccc1-n1c(C(C)Nc2ncnc3[nH]cnc23)cc2cccc(C)c2c1=O` (stereo not shown) [Compound 191], the IC50 against PI3K β was less than 10 µM; against PI3K γ, less than 0.1 µM; against PI3K α, greater than 10 µM; against PI3K δ it was less than 0.1 µM.
On to `Cc1ccccc1-n1c(Cn2nc(-c3ccn[nH]3)c3c(N)ncnc32)cc2cccc(C)c2c1=O` [Compound 182], for which the IC50 on PI3K β is greater than 10 µM; against PI3K γ, less than 0.1 µM; on PI3K α it was greater than 10 µM; against PI3K δ, less than 1 µM.
Consider `CC(=O)Nc1nc2ccc(-c3nn(Cc4cc5cccc(C)c5c(=O)n4-c4ccccc4)c4ncnc(N)c34)cc2s1` [Compound 177], for which the IC50 on PI3K β is less than 10 µM; against PI3K γ it was less than 0.1 µM; on PI3K α it was less than 1 µM; on PI3K δ it was less than 0.1 µM.
As to `Cc1ccccc1-n1c(Cn2nc(I)c3c(N)ncnc32)cc2cccc(F)c2c1=O` [Compound 42], the IC50 on PI3K β is greater than 10 µM; on PI3K γ, less than 10 µM; on PI3K α, greater than 10 µM; against PI3K δ, less than 1 µM.
As for `Cc1cccc2cc(C(C)Nc3nc(O)ncc3N)n(-c3ccccc3)c(=O)c12` (stereo not shown) [Compound 321], the IC50 at PI3K β, on PI3K γ, at PI3K α and at PI3K δ was greater than 10 µM in each case.
As for `COc1ccccc1-n1c(Cn2nc(I)c3c(N)ncnc32)cc2cccc(C)c2c1=O` [Compound 70], the IC50 against PI3K β is greater than 10 µM; against PI3K γ it was less than 1 µM; at PI3K α, greater than 10 µM; against PI3K δ, less than 0.1 µM.
As to `Cc1cccc2cc([C@H](C)Nc3nc(Cl)nc4[nH]cnc34)n(-c3ccccc3)c(=O)c12` [Compound 244], the IC50 against PI3K β is less than 10 µM; against PI3K γ it was less than 0.1 µM; at PI3K α it was less than 10 µM; at PI3K δ, less than 0.1 µM.
Consider `Cc1cccc2cc([C@H](C)Nc3ncnc4[nH]cc(C(N)=O)c34)n(-c3ccccc3)c(=O)c12` [Compound 288], for which the concentration for half-maximal inhibition (IC50) is less than 0.1 µM against PI3K β, less than 0.1 µM at PI3K γ, less than 1 µM on PI3K α and less than 0.1 µM on PI3K δ.
As to `Cc1ccccc1-n1c(Cn2nc(C(N)=O)c3c(N)ncnc32)cc2cccc(C)c2c1=O` [Compound 298], the IC50 was less than 10 µM against PI3K β, less than 1 µM on PI3K γ, greater than 10 µM at PI3K α and less than 1 µM at PI3K δ.
Consider `Cc1cccc2cc(Cn3nc(-c4cccc(O)c4)c4c(N)ncnc43)n(-c3ccccc3F)c(=O)c12` [Compound 10], for which the IC50 was greater than 10 µM against PI3K β, less than 1 µM at PI3K γ, greater than 10 µM against PI3K α and less than 0.1 µM against PI3K δ.
On to `Cc1ccccc1-n1c(Cn2nc(-c3ccc4sc(N)nc4c3)c3c(N)ncnc32)cc2cccc(C)c2c1=O` [Compound 276], for which the IC50 was less than 1 µM at PI3K β, less than 0.1 µM against PI3K γ, less than 1 µM on PI3K α and less than 0.1 µM against PI3K δ.
Turning to `Cc1cccc2cc(Cn3nc(-c4ccc(F)c(O)c4)c4c(N)ncnc43)n(C(C)C)c(=O)c12` [Compound 67], the IC50 on PI3K β was less than 10 µM; against PI3K γ it was less than 0.1 µM; against PI3K α, greater than 10 µM; against PI3K δ, less than 0.1 µM.
For `Cc1cccc2cc(Cn3nc(-c4cc(O)cc(F)c4)c4c(N)ncnc43)n(-c3ccccc3O)c(=O)c12` [Compound 90], the IC50 against PI3K β is less than 1 µM; against PI3K γ, less than 0.1 µM; against PI3K α, less than 10 µM; on PI3K δ, less than 0.1 µM.
Take `CCC(Nc1ncnc2[nH]cnc12)c1cc2cccc(C)c2c(=O)n1C(C)C` (stereo not shown) [Compound 219]: the IC50 against PI3K β is less than 10 µM; on PI3K γ, less than 10 µM; against PI3K α it was greater than 10 µM; against PI3K δ, less than 0.1 µM.
In the case of `CC(=O)Nc1nc2cc(-c3nn(Cc4cc5cccc(C)c5c(=O)n4-c4ccccc4)c4ncnc(N)c34)ccc2o1` [Compound 253], the IC50 against PI3K β was less than 0.1 µM; against PI3K γ it was less than 0.1 µM; against PI3K α it was less than 10 µM; against PI3K δ, less than 0.1 µM.
For `Cc1cccc2cc(Cn3nc(-c4cccc(O)c4)c4c(N)ncnc43)n(-c3ccccc3OCCN3CCOCC3)c(=O)c12` [Compound 109], the IC50 against PI3K β was greater than 10 µM; at PI3K γ, less than 1 µM; at PI3K α, greater than 10 µM; on PI3K δ, less than 0.1 µM.
Take `CCC(Nc1ncnc2[nH]cnc12)c1cc2cccc(C)c2c(=O)n1-c1ccccc1` (stereo not shown) [Compound 211]: the IC50 against PI3K β is less than 10 µM; at PI3K γ it was less than 0.1 µM; against PI3K α, greater than 10 µM; against PI3K δ it was less than 0.1 µM.
With `CCc1ccccc1-n1c(Cn2nc(C#C[C@@H](C)O)c3c(N)ncnc32)cc2cccc(C)c2c1=O` [Compound 99], the half-inhibitory concentration (IC50) is less than 10 µM against PI3K β, less than 1 µM on PI3K γ, greater than 10 µM against PI3K α and less than 0.1 µM against PI3K δ.
For the compound `Cc1cccc2cc([C@H](C)Nc3ncnc4[nH]cnc34)n(C3CCC3)c(=O)c12` [Compound 198], the IC50 against PI3K β was less than 10 µM; against PI3K γ, less than 0.1 µM; against PI3K α it was less than 10 µM; against PI3K δ it was less than 0.1 µM.
Regarding `Cc1cccc2cc(C(C)Nc3ncnc4[nH]cnc34)n(-c3c(F)cccc3F)c(=O)c12` (stereo not shown) [Compound 216], the IC50 against PI3K β is greater than 10 µM; against PI3K γ, less than 1 µM; at PI3K α, greater than 10 µM; at PI3K δ it was less than 0.1 µM.
In the case of `Cc1cccnc1-n1c(Cn2nc(-c3ccc4oc(N)nc4c3)c3c(N)ncnc32)cc2cccc(C)c2c1=O` [Compound 240], the IC50 at PI3K β was less than 10 µM; on PI3K γ it was less than 0.1 µM; at PI3K α, less than 10 µM; against PI3K δ it was less than 0.1 µM.
For `Cc1ccccc1-n1c(Cn2nc(-c3ccc(F)c(O)c3)c3c(N)ncnc32)cc2cccc(C)c2c1=O` [Compound 12], the IC50 was less than 10 µM against PI3K β, less than 0.1 µM at PI3K γ, greater than 10 µM on PI3K α and less than 0.1 µM against PI3K δ.
With `CCC(Nc1ncnc2[nH]cnc12)c1cc2cccc(C)c2c(=O)n1-c1ccccc1C` (stereo not shown) [Compound 202], the IC50 was less than 10 µM on PI3K β, less than 1 µM against PI3K γ, greater than 10 µM on PI3K α and less than 0.1 µM at PI3K δ.
Regarding `Cc1cccc2cc([C@H](C)Nc3cc(N)nc(Cl)n3)n(C3CC3)c(=O)c12` [Compound 283], the IC50 on PI3K β, against PI3K γ, on PI3K α and at PI3K δ was greater than 10 µM in each case.
As to `Cc1cccc2cc([C@H](C)Nc3ncnc4[nH]c(O)nc34)n(-c3ccccc3)c(=O)c12` [Compound 263], the IC50 against PI3K β, on PI3K γ, on PI3K α and against PI3K δ was greater than 10 µM each time.
On to `Cc1cccc2cc(Cn3nc(C#C[C@@H](C)O)c4c(N)ncnc43)n(C(C)C)c(=O)c12` [Compound 61], for which the IC50 at PI3K β was less than 10 µM; against PI3K γ it was less than 10 µM; on PI3K α it was greater than 10 µM; at PI3K δ, less than 0.1 µM.
`Cc1ccccc1-n1c(Cn2nc(-c3ccc4nc(N)[nH]c4c3)c3c(N)ncnc32)cc2cccc(C)c2c1=O` [Compound 295]: the IC50 at PI3K β was less than 10 µM; against PI3K γ it was less than 0.1 µM; at PI3K α, less than 10 µM; against PI3K δ it was less than 0.1 µM.
Take `Cc1cccc2cc(Cn3nc(-c4cc(O)cc(F)c4)c4c(N)ncnc43)n(C3CCCC3)c(=O)c12` [Compound 63]: the IC50 is less than 10 µM at PI3K β, less than 0.1 µM against PI3K γ, less than 10 µM against PI3K α and less than 0.1 µM on PI3K δ.
For `Cc1cccc2cc([C@H](C)Nc3ncc(C(F)(F)F)c(N)n3)n(-c3ccccc3)c(=O)c12` [Compound 325], the IC50 against PI3K β was greater than 10 µM; on PI3K γ it was greater than 10 µM; against PI3K α, greater than 10 µM; against PI3K δ, less than 10 µM.
Regarding `Cc1cccc2cc(Cn3nc(-c4cccc(O)c4)c4c(N)ncnc43)n(-c3ccccc3O)c(=O)c12` [Compound 81], the IC50 is less than 10 µM at PI3K β, less than 0.1 µM against PI3K γ, greater than 10 µM at PI3K α and less than 0.1 µM against PI3K δ.
For `Cc1cccc2cc([C@H](C)Nc3nc(F)nc4[nH]cnc34)n(C3CC3)c(=O)c12` [Compound 279], the IC50 against PI3K β was less than 0.1 µM; on PI3K γ, less than 1 µM; on PI3K α, less than 10 µM; against PI3K δ it was less than 0.1 µM.
In the case of `Cc1ccccc1-n1c(Cn2nc(-c3ccc4nc(N)sc4c3)c3c(N)ncnc32)cc2cccc(C)c2c1=O` [Compound 145], the IC50 at PI3K β was less than 10 µM; against PI3K γ, less than 0.1 µM; against PI3K α it was less than 1 µM; on PI3K δ it was less than 0.1 µM.
For `Cc1ccccc1-n1c(Cn2nc(-c3cccc(Cl)c3)c3c(N)ncnc32)cc2cccc(C)c2c1=O` [Compound 39], the IC50 on PI3K β was greater than 10 µM; at PI3K γ it was less than 1 µM; on PI3K α, greater than 10 µM; at PI3K δ, less than 10 µM.
With `Cc1cccc2cc(C(C)Nc3ncnc4[nH]cnc34)n(C3CCC3)c(=O)c12` (stereo not shown) [Compound 215], the IC50 against PI3K β was less than 10 µM; on PI3K γ, less than 0.1 µM; against PI3K α, greater than 10 µM; at PI3K δ it was less than 0.1 µM.
As for `Cc1cccc2cc(Cn3nc(-c4cn[nH]c4)c4c(N)ncnc43)n(-c3ccccc3Cl)c(=O)c12` [Compound 188], the IC50 at PI3K β was greater than 10 µM; at PI3K γ it was less than 1 µM; at PI3K α it was greater than 10 µM; against PI3K δ, less than 0.1 µM.
